Experiments:
H1975 = experiment: CCK-8 proliferation, NCI-H1975 (H1975); type: cell-based, Human; conditions: Homo sapiens, NCI-H1975; CCK-8; 96 hours; read-out: Inhibitory activity (IC50) on tumor cell proliferation, H1975
Method: The tumor cells used herein were cultured in a cell culture medium listed in table A1 at 37°C in an incubator with 5% CO2. Prior to experimentation, all cell lines used were correctly identified by STR profiling, and tested negative for mycoplasma contamination using a mycoplasma detection kit through routine screenings. Table A1. Tumor cells and cell culture medium used in the present disclosure
IC50 values of the compounds of the present disclosure (including the compounds in Table 1, and compounds of examples) were measured using the Meilun Cell Counting Kit-8 kit from Dalian Meilun Biotech Co., Ltd. Assay details are as follows: tumor cells were seeded in a 96-well plate at a density listed in Table A2. After 24h, 100 µL of the inoculated cells were treated with 0.5µL of the compounds of the present disclosure (including the compounds in Tables 1 and 2, and compounds of examples) at 10 different successively decreasing concentrations (starting at the highest concentration of 10µM; 5-fold serial dilutions). After the cells were treated with the compounds of the present disclosure for a period of time, the cell viability detection reagent was added to the culture medium for cell viability assessment according to the instructions provided with the CCK-8 kit. […] The growth inhibition of the compounds of the present disclosure on cells was plotted by Prism Graphpad software, and the IC50 values of the compounds of the present disclosure were calculated therefrom. […] Seeding protocol and treatment time for tumor cells

[1] = biological target: T1, human Cereblon WT GST-tagged protein (Homo sapiens, UniProt Q96SW2); experiment: CRBN binding, HTRF (CEREBLON BINDING kit); conditions: Table II-2, CRBN binding screening, HTRF; for inhibition at 0.5 µM: read-out: Inhibition rate (%) at 0.5µM; for inhibition at 2 µM: read-out: Inhibition rate (%) at 2 µM
T1 construct: purchased CISBIO 64BDCRBNPEH
T1 sequence (Q96SW2 whole entry): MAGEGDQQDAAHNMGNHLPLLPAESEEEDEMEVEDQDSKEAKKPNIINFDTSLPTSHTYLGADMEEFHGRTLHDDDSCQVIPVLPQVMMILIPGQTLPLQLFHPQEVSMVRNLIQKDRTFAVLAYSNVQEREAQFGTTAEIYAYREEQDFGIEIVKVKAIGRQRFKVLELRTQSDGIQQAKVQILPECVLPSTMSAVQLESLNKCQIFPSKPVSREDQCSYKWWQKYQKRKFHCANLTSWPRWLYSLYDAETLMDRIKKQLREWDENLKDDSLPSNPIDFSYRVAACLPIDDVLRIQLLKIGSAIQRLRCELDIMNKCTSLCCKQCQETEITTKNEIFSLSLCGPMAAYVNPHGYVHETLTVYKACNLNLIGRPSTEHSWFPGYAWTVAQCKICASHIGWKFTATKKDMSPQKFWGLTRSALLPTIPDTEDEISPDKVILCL
In short: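 After 3 h at room temperature, emission at 665 and 620 nm was measured in a homogeneous time-resolved fluorescence format. Compounds competed with a Thalidomide-Re probe for GST-tagged wild-type human CRBN, which was labelled with a Eu anti-GST antibody.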

Row | SMILES | IC50 (H1975) [nM] | inhibition at 0.5 µM [1] [%] | inhibition at 2 µM [1] [%]
1 | CN(Cc1ccc(C2CCC(=O)NC2=O)cc1)C1CCN(c2ccc(-c3cc(F)c4c(c3)C(=O)N(C(C(=O)Nc3nccs3)c3ncn5c3CCC5)C4)cc2)CC1 (stereo not drawn) [GT-05218, 2-(6,7-dihydro-5H-pyrrolo[1,2-c]imidazol-1-yl)-2-(6-(4-(4-((4-(2,6-dioxopiperidin-3-yl)benzyl)(methyl)amino)piperidin-1-yl)phenyl)-4-fluoro-1-oxoisoindolin-2-yl)-N-(thiazol-2-yl)acetamide] | 1 to 10 | – | –
2 | CN(Cc1ccc(N2CCC(=O)NC2=O)cc1)C1CCN(c2ccc(-c3cc(F)c4c(c3)C(=O)N(C(C(=O)Nc3nccs3)c3ncn5c3CCC5)C4)cc2)CC1 (stereo not drawn) [GT-05219, 2-(6,7-dihydro-5H-pyrrolo[1,2-c]imidazol-1-yl)-2-(6-(4-(4-((4-(2,4-dioxotetrahydropyrimidin-1(2H)-yl)benzyl)(methyl)amino)piperidin-1-yl)phenyl)-4-fluoro-1-oxoisoindolin-2-yl)-N-(thiazol-2-yl)acetamide] | 1 to 10 | – | –
3 | CN(Cc1cccc(N2CCC(=O)NC2=O)c1)C1CCN(c2ccc(-c3cc(F)c4c(c3)C(=O)N(C(C(=O)Nc3nccs3)c3ncn5c3CCC5)C4)cc2)CC1 (stereo not drawn) [GT-05281, 2-(6,7-dihydro-5H-pyrrolo[1,2-c]imidazol-1-yl)-2-(6-(4-(4-((3-(2,4-dioxotetrahydropyrimidin-1(2H)-yl)benzyl)(methyl)amino)piperidin-1-yl)phenyl)-4-fluoro-1-oxoisoindolin-2-yl)-N-(thiazol-2-yl)acetamide] | 1 to 10 | – | –
4 | CN(Cc1ccc(N2CCC(=O)NC2=O)cn1)C1CCN(c2ccc(-c3cc(F)c4c(c3)C(=O)N(C(C(=O)Nc3nccs3)c3ncn5c3CCC5)C4)cc2)CC1 (stereo not drawn) [GT-05282, 2-(6,7-dihydro-5H-pyrrolo[1,2-c]imidazol-1-yl)-2-(6-(4-(4-(((5-(2,4-dioxotetrahydropyrimidin-1(2H)-yl)pyridin-2-yl)methyl)(methyl)amino)piperidin-1-yl)phenyl)-4-fluoro-1-oxoisoindolin-2-yl)-N-(thiazol-2-yl)acetamide] | 1 to 10 | – | –
5 | CN(Cc1ccc(N2CCC(=O)NC2=O)nc1)C1CCN(c2ccc(-c3cc(F)c4c(c3)C(=O)N(C(C(=O)Nc3nccs3)c3ncn5c3CCC5)C4)cc2)CC1 (stereo not drawn) [GT-05283, 2-(6,7-dihydro-5H-pyrrolo[1,2-c]imidazol-1-yl)-2-(6-(4-(4-(((6-(2,4-dioxotetrahydropyrimidin-1(2H)-yl)pyridin-3-yl)methyl)(methyl)amino)piperidin-1-yl)phenyl)-4-fluoro-1-oxoisoindolin-2-yl)-N-(thiazol-2-yl)acetamide] | 1 to 10 | – | –
6 | CC1(C)CCC(c2ccc(Cl)cc2)=C(CN2CCN(c3ccc(C(=O)NS(=O)(=O)c4ccc(N[C@H](CCN5CC6CCC5CN6Cc5cccc(NC6CCC(=O)NC6=O)c5)CSc5ccccc5)c(S(=O)(=O)C(F)(F)F)c4)cc3)CC2)C1 (stereo partly drawn) [GT-07882, 4-(4-((4'-chloro-4,4-dimethyl-3,4,5,6-tetrahydro-[1,1'-biphenyl]-2-yl)methyl)piperazin-1-yl)-N-((4-(((2R)-4-(5-(3-((2,6-dioxopiperidin-3-yl)amino)benzyl)-2,5-diazabicyclo[2.2.2]octan-2-yl)-1-(phenylthio)butan-2-yl)amino)-3-((trifluoromethyl)sulfonyl)phenyl)sulfonyl)benzamide] | – | 30 to 40 | 30 to 40
7 | [2H]C1([2H])N(CC[C@H](CSc2ccccc2)Nc2ccc(S(=O)(=O)NC(=O)c3ccc(N4CCN(CC5=C(c6ccc(Cl)cc6)CCC(C)(C)C5)CC4)cc3)cc2S(=O)(=O)C(F)(F)F)C([2H])([2H])C([2H])([2H])N(Cc2ccc(C3CCC(=O)NC3=O)cc2)C1([2H])[2H] (stereo partly drawn) [GT-07906, 4-(4-((4'-chloro-4,4-dimethyl-3,4,5,6-tetrahydro-[1,1'-biphenyl]-2-yl)methyl)piperazin-1-yl)-N-((4-(((2R)-4-(4-(4-(2,6-dioxopiperidin-3-yl)benzyl)piperazin-1-yl-2,2,3,3,5,5,6,6-d8)-1-(phenylthio)butan-2-yl)amino)-3-((trifluoromethyl)sulfonyl)phenyl)sulfonyl)benzamide] | – | 20 to 30 | 53 to 60

From patent publication EP4678638A1, “NEW E3 UBIQUITIN LIGASE LIGAND, PROTEIN DEGRADATION AGENT AND USE THEREOF” (priority 2023, dated 2024)
